Patent publication US8163728B2, “Pyrazoles” (Hoffmann-La Roche Inc., priority 2009, dated 2012)

Biological target: T1, GABA A α5 (Homo sapiens, UniProt P18507+P31644)
T1 construct: expressed in transfected cells; host or cells: HEK293 cells, transiently transfected; membranes prepared from cell pellets
Experiment: [3H]flumazenil competition binding, human GABA A α5β3γ2 receptors in HEK293 cell membranes
Conditions: human receptor α5β3γ2 transiently transfected in HEK293; 0.5 nM [3H]flumazenil; 1 hour at 4° C.; means of two determinations; read-out: hKi GABA A α5
Procedure, shortened: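 Competition with [3H]flumazenil for binding to membranes of HEK293 cells transiently expressing human α5β3γ2, in Krebs-tris buffer pH 7.5. Incubated to equilibrium 1 h at 4 °C, filtered and scintillation-counted; Ki values are means of two determinations.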

Cn1nc(OCc2c(-c3ccc(Cl)cc3)noc2CO)cc1C(=O)N1CC2(COC2)C1 [Example 109, {5-[3-(4-Chloro-phenyl)-5-hydroxymethyl-isoxazol-4-ylmethoxy]-2-methyl-2H-pyrazol-3-yl}-(2-oxa-6-aza-spiro[3.3]hept-6-yl)-methanone] gave a Ki of 0.009 µM.
Cc1onc(-c2ccc(F)cc2)c1/C=C/c1cc(C(=O)N2CCOCC2)[nH]n1 [Example 132, (5-{(E)-2-[3-(4-Fluoro-phenyl)-5-methyl-isoxazol-4-yl]vinyl}-2H-pyrazol-3-yl)-morpholin-4-yl-methanone] showed a Ki of 0.0506 µM.
CC(NC(=O)c1cc(OCc2c(-c3ccc(Cl)cc3)noc2CO)nn1C)C(F)(F)F (stereo in doubt) [Example 106, 5-[3-(4-Chloro-phenyl)-5-hydroxymethyl-isoxazol-4-ylmethoxy]-2-methyl-2H-pyrazole-3-carboxylic acid ((S)-2,2,2-trifluoro-1-methyl-ethyl)-amide] showed a Ki of 0.0081 µM.
For Cc1onc(-c2ccc(F)cc2)c1CNc1cc(C(=O)NCC(C)(C)O)n(C)n1 [Example 144, 5-{[3-(4-Fluoro-phenyl)-5-methyl-isoxazol-4-ylmethyl]-amino}-2-methyl-2H-pyrazole-3-carboxylic acid (2-hydroxy-2-methyl-propyl)-amide], the Ki was 0.0293 µM.
CCCCc1noc(CO)c1COc1cc(C(=O)NC2CCC2)n(C)n1 [Example 113, 5-(3-Butyl-5-hydroxymethyl-isoxazol-4-ylmethoxy)-2-methyl-2H-pyrazole-3-carboxylic acid cyclobutylamide] showed a Ki of 0.0396 µM.
Compound CCCCc1noc(C)c1COc1cc(C(=O)N2CCOCC2)[nH]n1 [Example 36, [5-(3-Butyl-5-methyl-isoxazol-4-ylmethoxy)-2H-pyrazol-3-yl]morpholin-4-yl-methanone] has a Ki of 0.0535 µM.
Cc1onc(-c2ccc(F)cn2)c1COc1cc(C(=O)N[C@@H](C)CO)nn1C [Example 117, 5-[3-(5-Fluoro-pyridin-2-yl)-5-methyl-isoxazol-4-ylmethoxy]-1-methyl-1H-pyrazole-3-carboxylic acid ((S)-2-hydroxy-1-methyl-ethyl)-amide] showed a Ki of 0.0068 µM.
Cc1onc(-c2ccccc2)c1COc1cc(C(=O)N2CCOCC2)[nH]n1 [Example 1, [5-(5-Methyl-3-phenyl-isoxazol-4-ylmethoxy)-2H-pyrazol-3-yl]morpholin-4-yl-methanone] gave a Ki of 0.0413 µM.
CCNC(=O)c1cc(NCc2c(-c3ccc(F)cc3)noc2C)n[nH]1 [Example 155, 5-{[3-(4-Fluoro-phenyl)-5-methyl-isoxazol-4-ylmethyl]-amino}-2H-pyrazole-3-carboxylic acid ethylamide] showed a Ki of 0.0571 µM.
For Cc1onc(-c2ccc(F)cc2)c1COc1cc(C(=O)NN2CCCCC2)n(C)n1 [Example 49, 5-[3-(4-Fluoro-phenyl)-5-methyl-isoxazol-4-ylmethoxy]-2-methyl-2H-pyrazole-3-carboxylic acid piperidin-1-ylamide], the Ki was 0.0193 µM.
In the case of Cc1onc(-c2ccc(F)cc2)c1COc1cc(C(=O)NN2CCOCC2)[nH]n1 [Example 8, 5-[3-(4-Fluoro-phenyl)-5-methyl-isoxazol-4-ylmethoxy]-2H-pyrazole-3-carboxylic acid morpholin-4-ylamide], the Ki is reported as 0.0018 µM.
Work on Cc1onc(-c2ccc(F)cc2)c1/C=C/c1cc(C(=O)NC(C)C)[nH]n1 [Example 134, 5-{(E)-2-[3-(4-Fluoro-phenyl)-5-methyl-isoxazol-4-yl]-vinyl}-2H-pyrazole-3-carboxylic acid isopropylamide] yielded a Ki of 0.0052 µM.
In the case of Cn1nc(OCc2c(-c3ccc(Cl)cc3)noc2CO)cc1C(=O)NC(C)(C)CO [Example 107, 5-[3-(4-Chloro-phenyl)-5-hydroxymethyl-isoxazol-4-ylmethoxy]-2-methyl-2H-pyrazole-3-carboxylic acid (2-hydroxy-1,1-dimethyl-ethyl)-amide], the Ki is reported as 0.0178 µM.
Work on CCCCc1noc(C)c1COc1cc(C(=O)NC2CCOCC2)n(C)n1 [Example 88, 5-(3-Butyl-5-methyl-isoxazol-4-ylmethoxy)-2-methyl-2H-pyrazole-3-carboxylic acid (tetra-hydro-pyran-4-yl)-amide] yielded a Ki of 0.0087 µM.
Work on CCCCc1noc(C)c1COc1cc(C(=O)NC2CCOC2)n(C)n1 (racemic) [Example 89, Rac-5-(3-Butyl-5-methyl-isoxazol-4-ylmethoxy)-2-methyl-2H-pyrazole-3-carboxylic acid (tetrahydro-furan-3-yl)-amide] yielded a Ki of 0.0203 µM.
Compound CCCCc1noc(C)c1COc1cc(C(=O)NCCO)[nH]n1 [Example 33, 5-(3-Butyl-5-methyl-isoxazol-4-ylmethoxy)-2H-pyrazole-3-carboxylic acid (2-hydroxyethyl)-amide] has a Ki of 0.0202 µM.
Compound CCCCc1noc(C)c1COc1cc(C(=O)NC(C)C)[nH]n1 [Example 32, 5-(3-Butyl-5-methyl-isoxazol-4-ylmethoxy)-2H-pyrazole-3-carboxylic acid isopropylamide] has a Ki of 0.0157 µM.
Cc1onc(-c2ccc(F)cn2)c1COc1cc(C(=O)NC(C)(C)C)[nH]n1 [Example 19, 5-[3-(5-Fluoro-pyridin-2-yl)-5-methyl-isoxazol-4-ylmethoxy]-2H-pyrazole-3-carboxylic acid tert-butylamide] was tested, and the Ki was 0.0178 µM.
Cc1onc(-c2ccccn2)c1COc1cc(C(=O)NC(C)C)nn1C [Example 115, 1-Methyl-5-(5-methyl-3-pyridin-2-yl-isoxazol-4-ylmethoxy)-1H-pyrazole-3-carboxylic acid isopropylamide] was tested, and the Ki was 0.0205 µM.
Cc1onc(-c2ccc(F)cc2)c1/C=C/c1cc(C(N)=O)[nH]n1 [Example 142, 5-{(E)-2-[3-(4-Fluoro-phenyl)-5-methyl-isoxazol-4-yl]vinyl}-2H-pyrazole-3-carboxylic acid amide] was tested, and the Ki was 0.0048 µM.
Work on Cc1onc(-c2ccc(F)cc2)c1/C=C/c1cc(C(=O)NC2CCOCC2)n(C)n1 [Example 125, 5-{(E)-2-[3-(4-Fluoro-phenyl)-5-methyl-isoxazol-4-yl]vinyl}-2-methyl-2H-pyrazole-3-carboxylic acid (tetrahydro-pyran-4-yl)-amide] yielded a Ki of 0.0004 µM.
Cn1nc(OCc2c(-c3ccc(Cl)cc3)noc2CO)cc1C(=O)NC1(C)COC1 [Example 108, 5-[3-(4-Chloro-phenyl)-5-hydroxymethyl-isoxazol-4-ylmethoxy]-2-methyl-2H-pyrazole-3-carboxylic acid (3-methyl-oxetan-3-yl)-amide] gave a Ki of 0.0031 µM.
With CCCCc1noc(C)c1COc1cc(C(=O)NC(CO)CO)[nH]n1 [Example 29, 5-(3-Butyl-5-methyl-isoxazol-4-ylmethoxy)-2H-pyrazole-3-carboxylic acid (2-hydroxy-1-hydroxymethyl-ethyl)-amide] the Ki was 0.0104 µM.
Cc1onc(-c2ccc(F)cc2)c1CNc1cc(C(=O)NCC(C)(C)O)[nH]n1 [Example 152, 5-{[3-(4-Fluoro-phenyl)-5-methyl-isoxazol-4-ylmethyl]-amino}-2H-pyrazole-3-carboxylic acid (2-hydroxy-2-methyl-propyl)-amide] gave a Ki of 0.0209 µM.
CCCCc1noc(C)c1COc1cc(C(=O)NC2CCOC2)[nH]n1 (racemic) [Example 28, Rac-5-(3-Butyl-5-methyl-isoxazol-4-ylmethoxy)-2H-pyrazole-3-carboxylic acid (tetrahydrofuran-3-yl)-amide] gave a Ki of 0.0054 µM.
